According to US10550102B2, “Indane and indoline derivatives and the use thereof as soluble guanylate cyclase activators” (NOVARTIS AG, priority 2014, dated 2020):

The molecules below were run against soluble guanylate cyclase (human GUCYA3 and GUCYB3) overexpressed in CHO cells (Homo sapiens (Human), UniProt Q02108+Q02153) (assay: CHO cellular assay (cGMP production, Cisbio cGMP HTRF kit)). Settings: CHO GUCY clone 8E10, cGMP production, assay buffer with 1 mM IBMX and 20 uM ODQ, 1 h room temperature; minimum quantification limit 0.5 nM (listed 0.5 nM means ≤0.5 nM); read-out: EC50.
Format: cell-based
Excerpt: Chinese hamster ovary (CHO) cells overexpressing soluble guanylate cyclase were generated to test the effect of sGC activators in a cellular context. Human cDNAs for GUCYA3 (RefSeq: NM_000856.3) and GUCYB3 (RefSeq: NM_000857.1) were amplified by PCR from a HUVEC (Human Umbilical Vein Endothelial Cells) cDNA library and cloned into mammalian expression vectors. CHO K1 cells (ATCC CCL-61) were transfected using Lipofectamine 2000 following manufacturer's instructions and stably expressing clones were identified by antibiotic selection. CHO GUCY clone 8E10 was used for subsequent experiments. Cells were seeded at a density of 3000 cells/well in white 384-well proxyplates (Perkin Elmer) and incubated overnight, then the medium was removed and cells were washed with assay buffer (HBSS, 0.1% BSA. 1 mM IBMX, 20 uM ODQ). sGC activators were serially diluted in DMSO, then diluted in assay buffer prior to adding to cells (10 ul/well, final DMSO concentration 0.5%). Cells were incubated with compounds for 1 h room temperature, then assayed for cGMP production using Cisbio cGMP HTRF kit (62GM2PEC) according to manufacturer's instructions. The EC50s are calculated based on the amount of cGMP interpolated from the standard curve, using a 4-parameter sigmoidal dose-response.

Chain of soluble guanylate cyclase (human GUCYA3 and GUCYB3) overexpressed in CHO cells (Q02108 whole entry partner): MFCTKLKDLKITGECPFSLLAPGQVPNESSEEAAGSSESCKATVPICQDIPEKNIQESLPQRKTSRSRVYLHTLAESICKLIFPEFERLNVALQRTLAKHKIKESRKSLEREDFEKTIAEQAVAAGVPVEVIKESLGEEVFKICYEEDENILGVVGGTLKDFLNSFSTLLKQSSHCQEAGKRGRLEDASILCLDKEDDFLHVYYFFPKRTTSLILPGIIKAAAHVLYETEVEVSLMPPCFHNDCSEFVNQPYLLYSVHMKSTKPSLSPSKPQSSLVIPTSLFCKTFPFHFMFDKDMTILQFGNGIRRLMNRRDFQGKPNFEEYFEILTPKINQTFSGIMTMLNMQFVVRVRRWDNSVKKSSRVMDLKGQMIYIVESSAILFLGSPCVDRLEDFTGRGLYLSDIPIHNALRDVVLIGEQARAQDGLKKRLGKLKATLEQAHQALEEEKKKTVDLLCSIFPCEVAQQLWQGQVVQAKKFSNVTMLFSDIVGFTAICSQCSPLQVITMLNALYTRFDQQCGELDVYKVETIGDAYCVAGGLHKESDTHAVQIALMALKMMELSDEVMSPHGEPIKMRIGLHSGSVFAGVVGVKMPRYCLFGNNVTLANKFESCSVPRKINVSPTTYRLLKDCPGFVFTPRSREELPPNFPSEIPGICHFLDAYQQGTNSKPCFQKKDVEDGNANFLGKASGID
Chain of soluble guanylate cyclase (human GUCYA3 and GUCYB3) overexpressed in CHO cells (Q02153 whole entry): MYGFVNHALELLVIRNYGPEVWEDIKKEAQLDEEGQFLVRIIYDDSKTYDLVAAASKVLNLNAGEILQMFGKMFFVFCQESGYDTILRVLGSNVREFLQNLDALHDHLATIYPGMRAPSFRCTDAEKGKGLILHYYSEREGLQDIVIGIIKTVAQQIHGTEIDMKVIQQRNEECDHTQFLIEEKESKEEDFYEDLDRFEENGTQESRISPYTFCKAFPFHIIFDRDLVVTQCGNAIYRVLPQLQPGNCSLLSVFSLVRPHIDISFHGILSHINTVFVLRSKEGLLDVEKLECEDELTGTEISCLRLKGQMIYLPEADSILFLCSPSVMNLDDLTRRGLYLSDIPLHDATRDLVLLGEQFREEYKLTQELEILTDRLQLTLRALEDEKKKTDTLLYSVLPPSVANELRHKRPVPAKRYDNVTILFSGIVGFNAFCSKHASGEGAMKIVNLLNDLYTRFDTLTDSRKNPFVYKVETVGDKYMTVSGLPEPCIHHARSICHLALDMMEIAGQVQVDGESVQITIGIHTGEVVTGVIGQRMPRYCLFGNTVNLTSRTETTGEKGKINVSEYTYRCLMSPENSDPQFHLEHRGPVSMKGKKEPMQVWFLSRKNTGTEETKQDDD

How did the EC50 turn out when CCc1cc(CN2CC(C)c3cccc(-c4cccc(-n5ncc(C(=O)O)c5C)n4)c32)ccc1C1CCN(C(=O)C2CC2)CC1 (single isomer, unassigned; (+)) [(+)-20-3, (+)-1-(6-(1-(4-(1-(Cyclopropanecarbonyl)piperidin-4-yl)-3-ethylbenzyl)-3-methylindolin-7-yl)pyridin-2-yl)-5-methyl-1H-pyrazole-4-carboxylic acid] was run?
The EC50 was ≤ 0.5 nM.

How did the EC50 turn out when CCc1cc(NC2COc3cccc(-c4cccc(-n5ncc(C(=O)O)c5C(F)(F)F)n4)c32)ccc1C1CCN(C(=O)C2CC2)CC1 (single isomer, unassigned; (+)) [(+)-36-1, (+)-1-(6-(3-((4-(1-(Cyclopropanecarbonyl)piperidin-4-yl)-3-ethylphenyl)amino)-2,3-dihydrobenzofuran-4-yl)pyridin-2-yl)-5-(trifluoromethyl)-1H-pyrazole-4-carboxylic acid] was run?
Its EC50 is ≤ 0.5 nM.

With CCc1cc(NC2COc3cccc(-c4cccc(-n5ncc(C(=O)O)c5CC)n4)c32)ccc1C1CCN(C(=O)C2CC2)CC1 (single isomer, unassigned; (+)) [(+)-36-2, (+)-1-(6-(3-((4-(1-(Cyclopropanecarbonyl)piperidin-4-yl)-3-ethylphenyl)amino)-2,3-dihydrobenzofuran-4-yl)pyridin-2-yl)-5-ethyl-1H-pyrazole-4-carboxylic acid] as the molecule, how does the EC50 read?
The EC50 was ≤ 0.5 nM.

Which EC50 does the source give for Cc1cc(C2CCN(C(=O)C(C)C)CC2)ccc1NC1CCc2cccc(-c3cccc(-n4ncc(C(=O)O)c4C)n3)c21 (single isomer, unassigned; (+)) [(+)-46-1] here?
Its EC50 is ≤ 0.5 nM.

How did the EC50 turn out when Cc1cc(C2CCN(C(=O)CC3CC3)CC2)ccc1NC1CCc2cccc(-c3cccc(-n4ncc(C(=O)O)c4C)n3)c21 (single isomer, unassigned; (+)) [(+)-46-3, (+)-1-(6-(3-((4-(1-(2-Cyclopropylacetyl)piperidin-4-yl)-2-methylphenyl)amino)-2,3-dihydro-1H-inden-4-yl)pyridin-2-yl)-5-methyl-1H-pyrazole-4-carboxylic acid] was run?
The EC50 was 1 nM.

Cc1cc(C2CCN(C(=O)CC3CC3)CC2)c(F)cc1NC1CCc2cccc(-c3cccc(-n4ncc(C(=O)O)c4C)n3)c21 (single isomer, unassigned; (+)) [(+)-46-5, (+)-1-(6-(3-((4-(1-(2-Cyclopropylacetyl)piperidin-4-yl)-5-fluoro-2-methylphenyl)amino)-2,3-dihydro-1H-inden-4-yl)pyridin-2-yl)-5-methyl-1H-pyrazole-4-carboxylic acid] was tested. Which EC50 did it give?
Its EC50 is 1 nM.

For CCc1cc(NC2CCc3cccc(-c4cccc(-n5ncc(C(=O)O)c5C)n4)c32)ccc1C1CCN(C(=O)C2CC2)CC1 (single isomer, unassigned; (+)) [(+)-46-6], which EC50 is on record?
The EC50 was ≤ 0.5 nM.

For CCOC(=O)N1CCC(c2ccc(NC3CCc4cccc(-c5cccc(-n6ncc(C(=O)O)c6CC)n5)c43)cc2CC)CC1 (single isomer, unassigned; (+)) [(+)-52-1], which EC50 is on record?
The EC50 was ≤ 0.5 nM.

For CCc1cc(NC2CCc3cccc(-c4cccc(-n5ncc(C(=O)O)c5CC)n4)c32)ccc1C1CCN(C(=O)OC)CC1 (single isomer, unassigned; (+)) [(+)-52-2, (+)-5-Ethyl-1-(6-(3-((3-ethyl-4-(1-(methoxycarbonyl)piperidin-4-yl)phenyl)amino)-2,3-dihydro-1H-inden-4-yl)pyridin-2-yl)-1H-pyrazole-4-carboxylic acid], which EC50 is on record?
Its EC50 is ≤ 0.5 nM.

For C=CCOC(=O)N1CCC(c2ccc(NC3CCc4cccc(-c5cccc(-n6ncc(C(=O)O)c6CC)n5)c43)cc2CC)CC1 (single isomer, unassigned; (+)) [(+)-52-3], which EC50 is on record?
The EC50 was ≤ 0.5 nM.

CCc1cc(NC2CCc3cccc(-c4cccc(-n5ncc(C(=O)O)c5CC)n4)c32)ccc1C1CCN(C(=O)C2CC2)CC1 (single isomer, unassigned; (+)) [(+)-53-1, (+)-1-(6-(3-((4-(1-(cyclopropanecarbonyl)piperidin-4-yl)-3-ethylphenyl)amino)-2,3-dihydro-1H-inden-4-yl)pyridin-2-yl)-5-ethyl-1H-pyrazole-4-carboxylic acid] was tested. Which EC50 did it give?
Its EC50 is ≤ 0.5 nM.

CCc1cc(NC2CCc3cccc(-c4cccc(-n5ncc(C(=O)O)c5CC)n4)c32)ccc1C1CCN(C(=O)CC2CC2)CC1 (single isomer, unassigned; (+)) [(+)-53-2, (+)-1-(6-(3-((4-(1-(2-cyclopropylacetyl)piperidin-4-yl)-3-ethylphenyl)amino)-2,3-dihydro-1H-inden-4-yl)pyridin-2-yl)-5-ethyl-1H-pyrazole-4-carboxylic acid] was tested. Which EC50 did it give?
The EC50 was 1 nM.

How did the EC50 turn out when Cc1cc(C2CCN(C(=O)CC3CC3)CC2)cc(F)c1NC1CCc2cccc(-c3cccc(-n4ncc(C(=O)O)c4C)n3)c21 (single isomer, unassigned; (+)) [(+)-53-3, (+)-1-(6-(3-((4-(1-(2-cyclopropyacetyl)piperidin-4-yl)-2-fluoro-6-methylphenyl)amino)-2,3-dihydro-1H-inden-4-yl)pyridin-2-yl)-5-methyl-1H-pyrazole-4-carboxylic acid] was run?
Its EC50 is 3.5 nM.

Which EC50 does the source give for Cc1cc(C2CCN(C(=O)C3CC3)CC2)ccc1NC1CCc2cccc(-c3cccc(-n4ncc(C(=O)O)c4C(F)F)n3)c21 (single isomer, unassigned; (+)) [(+)-53-4, (+)-1-(6-(3-((4-(1-(cyclopropanecarbonyl)piperidin-4-yl)-2-methylphenyl)amino)-2,3-dihydro-1H-inden-4-yl)pyridin-2-yl)-5-(difluoromethyl)-1H-pyrazole-4-carboxylic acid] here?
Its EC50 is ≤ 0.5 nM.

How did the EC50 turn out when Cc1cc(C2CCN(C(=O)C3CC3)CC2)ccc1OC1CCc2cccc(-c3cccc(-n4ncc(C(=O)O)c4C(F)(F)F)n3)c21 (single isomer, unassigned; (+)) [Example 3a, (+)-1-(6-(3-(4-(1-(cyclopropanecarbonyl)piperidin-4-yl)-2-methylphenoxy)-2,3-dihydro-1H-inden-4-yl)pyridin-2-yl)-5-(trifluoromethyl)-1H-pyrazole-4-carboxylic Acid] was run?
The EC50 was 1 nM.

O=C(O)c1cnn(-c2cccc(-c3cccc4c3C(Oc3ccc5c(c3)CCN(Cc3ccccn3)C5)CC4)n2)c1C(F)(F)F (single isomer, unassigned; (+)) [Example 4a, (+)-1-(6-(3-((2-(pyridin-2-ylmethyl)-1,2,3,4-tetrahydroisoquinolin-6-yl)oxy)-2,3-dihydro-1H-inden-4-yl)pyridin-2-yl)-5-(trifluoromethyl)-1H-pyrazole-4-carboxylic Acid] was tested. Which EC50 did it give?
Its EC50 is 2.4 nM.

With Cc1cc(C2CCN(C(=O)C3CC3)CC2)ccc1NC1CCc2cccc(-c3cccc(-n4ncc(C(=O)O)c4C(F)(F)F)c3)c21 (single isomer, unassigned; (+)) [Example 6. b). (+), (+)-1-(3-(3-((4-(1-(cyclopropanecarbonyl)piperidin-4-yl)-2-methylphenyl)amino)-2,3-dihydro-1H-inden-4-yl)phenyl)-5-(trifluoromethyl)-1H-pyrazole-4-carboxylic acid] as the molecule, how does the EC50 read?
The EC50 was ≤ 0.5 nM.

For Cc1cc(C2CCN(C(=O)C3CC3)CC2)ccc1NC1CCc2cccc(-c3cccc(-n4ncc(C(=O)O)c4C)n3)c21 (single isomer, unassigned; (+)) [Example 7a, (+)-1-(6-(3-((4-(1-(cyclopropanecarbonyl)piperidin-4-yl)-2-methylphenyl)amino)-2,3-dihydro-1H-inden-4-yl)pyridin-2-yl)-5-methyl-1H-pyrazole-4-carboxylic acid], which EC50 is on record?
Its EC50 is ≤ 0.5 nM.

Cc1c(C(=O)O)cnn1-c1cccc(-c2cccc3c2C(Nc2ccc(C4CCN(C(=O)C5CC5)CC4)cc2)CC3)n1 (single isomer, unassigned; (+)) [Example 9. b). (+), (+)-1-(6-(3-((4-(1-(cyclopropanecarbonyl)piperidin-4-yl)phenyl)amino)-2,3-dihydro-1H-inden-4-yl)pyridin-2-yl)-5-methyl-1H-pyrazole-4-carboxylic acid] was tested. Which EC50 did it give?
The EC50 was ≤ 0.5 nM.

With CCc1c(C(=O)O)cnn1-c1cccc(-c2cccc3c2C(Nc2ccc(C4CCN(C(=O)C5CC5)CC4)cc2C)CC3)n1 (single isomer, unassigned; (+)) [Example 10a] as the molecule, how does the EC50 read?
Its EC50 is ≤ 0.5 nM.

With CCc1cc(CN2CC(C)c3cccc(-c4cccc(-n5ncc(C(=O)O)c5C(F)(F)F)n4)c32)ccc1C1CCN(C(=O)C2CC2)CC1 (single isomer, unassigned; (+)) [Example 19a] as the molecule, how does the EC50 read?
The EC50 was ≤ 0.5 nM.

With CCc1cc(CN2c3c(cccc3-c3cccc(-n4ncc(C(=O)O)c4CC)n3)CC2C)ccc1C1CCN(C(=O)C2CC2)CC1 (single isomer, unassigned; (+)) [Example 22a, (+)-1-(6-(1-(4-(1-(Cyclopropanecarbonyl)piperidin-4-yl)-3-ethylbenzyl)-2-methylindolin-7-yl)pyridin-2-yl)-6-ethyl-1H-pyrazole-4-carboxylic Acid] as the molecule, how does the EC50 read?
The EC50 was 1 nM.

For Cc1cc(C2CCN(C(=O)C3CC3)CC2)ccc1NC1COc2cccc(-c3cccc(-n4ncc(C(=O)O)c4C)n3)c21 (single isomer, unassigned; (+)) [Example 34a, (+)-1-(6-(3-((4-(1-(Cyclopropanecarbonyl)piperidin-4-yl)-2-methylphenyl)amino)-2,3-dihydrobenzofuran-4-yl)pyridin-2-yl)-5-methyl-1H-pyrazole-4-carboxylic Acid], which EC50 is on record?
Its EC50 is ≤ 0.5 nM.

For Cc1cc(C2CCN(C(=O)[C@H](C)O)CC2)ccc1NC1COc2cccc(-c3cccc(-n4ncc(C(=O)O)c4C)n3)c21 (single isomer, unassigned; (+)) [Example 35a], which EC50 is on record?
The EC50 was ≤ 0.5 nM.
